Assay results published in patent US20110136858A1, “Preferred Combination Therapy” (priority 2009, published 2011).

How the values were obtained:
[1] = tested on: TGF-beta1; assay: Functional assay for TGF-beta Production Stimulator activity: suppression of smooth muscle cell proliferation reversible by neutralising anti-TGF-beta1 antibody; assay type: cell-based, rat; conditions: for EC50: rat aortic smooth muscle cells in culture, 72 hrs, suppression of proliferation reversible by neutralising antibodies to TGF-beta1, from dose-response curves of FIG. 2, read-out: ED50 for the TGF-beta Production Stimulator activity
Source text: In order compare Droloxifene with other triphenylethylenes, we have exploited a functional assay for TGF-beta1 activity. Alternative approaches are less suitable for various reasons: it is not possible to directly measure TGF-beta protein production by cultured cells in response to triphenylethylenes because the TGF-beta that is produced remains associated with the cells or the extracellular matrix and is therefore not available for assay (for example, by ELISA) in the conditioned medium from the cultured cells. […] The specificity of such an assay is achieved by comparing the rate of proliferation of the smooth muscle cells in the presence or absence of a validated, highly specific neutralising antibody against TGF-beta (or TGF-beta1, as required).
The cells were prepared by enzyme dispersion of isolated rat aortae exactly as described previously (Grainger et al (1993) Biochem. J. 294(1):109-12 and the references therein). The cells were cultured (37° C.; 5% CO2) in DMEM+10% foetal calf serum (FCS), and subcultured every 4 days at 1:2 dilution, using 0.02% trypsin/EDTA (Gibco). Experiments were performed between the sixth and twentieth subculture.
For the experiments, the cells were subcultured into 12-well cluster plates, and allowed to grow for 24 hrs. […] The cells were then incubated for 72 hrs. All treatment conditions were established in triplicate. One triplicate of cells was counted (see below) at 0 h. All other wells were counted at 72 hrs.
The number of cells in each well was determined as follows: the well was washed three times with serum-free DMEM, aspirated and then incubated with 100 μl of trypsin/EDTA solution (Gibco) for 2 minutes at 37° C. Complete release of the cell monolayer was confirmed microscopically. The cell density in portion of this suspension was determined by counting using an Improved Neubauer hameocytometer, ensuring the suspension was uniform by gentle pipetting, prior to sampling. The cell density was converted to the absolute number of cells present in the well by multiplying the number of cells per μl by the total volume of suspension (100 μl). For each condition, the mean number of cells at the end of the experiment was calculated by meaning the number of cells in each well of triplicate.
The extent of proliferation of the cell culture under each condition was determined by subtracting the mean number of cells at time Oh from the mean number of cells under that condition at time 72 h. The amount of TGF-beta1 activity under each condition was determined by subtracting the inhibition of growth achieved in the presence of neutralising anti-TGF-beta1 antibody (AB-101-NA; R&D Systems) from the inhibition of growth achieved in the absence of antibody.

[2] = Effect of co-administration of triphenylethylenes on clopidogrel metabolism in vivo (CLP*-acetamide by LC-MS); design: species or system Sprague-Dawley rats; conditions: rats, 0.1 to 10 mg/kg analog with 10 mg/kg clopidogrel
Method: Adult male Sprague-Dawley rats are dosed with various triphenylethylenes at different doses from 0.1 mg/kg to 10 mg/kg (spanning the likely doses such compounds would be used in man), or with vehicle only, and simultaneously dosed with 10 mg/kg clopidogrel, both by oral gavage. Blood samples are drawn through an in-dwelling jugular catheter at 0.5, 1, 2, 4, 8 and 24 hrs post-dose, and serum is prepared by conventional methods well known in the art.
The level of CLP*, the active metabolite of clopidogrel is then determined in each blood sample by LC-MS by collecting the blood samples in tubes containing the thiol alkylating agent iodeoacetamide. Iodoacetamide reacts with CLP* to generate a stable product which can be detected by LC-MS using standard methodology well known in the art. An authentic sample of the acetamide adduct of CLP* is used to quantify the level of CLP*-acetamide in the sample. […] The concentration of CLP*-acetamide adduct can therefore be assumed to be proportional to the concentration of CLP*. The pharmacokinetics of CLP*-acetamide are then compared under the different conditions, using standard pharmacokinetics models implemented with WinNonLin.

[3] = chronic Tamoxifen users; translated from the relative risk; cited from earlier work

In the case of `CC/C(=C(/c1ccc(OCCN(C)C)cc1)c1cccc(O)c1)c1ccccc1` [Droloxifene, (E)-1-(4′-(2-dimethylaminoethoxy)phenyl)-1-(3-hydroxyphenyl)-2-phenylbut-1-ene], the EC50 [1] is reported as 3 µM and the “effect on clopidogrel metabolism (in words)” value [2] is reported as “no effect”.
For `CC/C(=C(\c1ccc(I)cc1)c1ccc(OCCN2CCCC2)cc1)c1ccccc1` [Idoxifene], the EC50 [1] was 5 µM.
In the case of `O=C(c1ccc(OCCN2CCCCC2)cc1)c1c(-c2ccc(O)cc2)sc2cc(O)ccc12` [Raloxifene], the “activity as Production Stimulator for TGF-beta1 (in words)” value ([1]; rat aortic smooth muscle cells) is reported as “does not have measurable activity” and the EC50 [1] is reported as > 100 µM.
For `CC/C(=C(\c1ccccc1)c1ccc(OCCN(C)C)cc1)c1ccccc1` [Tamoxifen], the “reduction in risk of death from myocardial infarction” value [3] is given as 33%.
In the case of `CN(C)CCOc1ccc(/C(=C(/CCCl)c2ccccc2)c2ccccc2)cc1` [Toremifene], the EC50 [1] is reported as 10 µM.
